In patent publication US20130142796A1, “TREATMENT FOR ANGIOGENIC DISORDERS” (priority 2011, published 2013):
“Also recorded” adds a separate entry of the source.

B1: ranibizumab (antibody, chains of the INN, looked up, V domains shown)
VH: EVQLVESGGGLVQPGGSLRLSCAASGYDFTHYGMNWVRQAPGKGLEWVGWINTYTGEPTYAADFKRRFTFSLDTSKSTAYLQMNSLRAEDTAVYYCAKYPYYYGTSHWYFDVWGQGTLVTVSS
VL: DIQLTQSPSSLSASVGDRVTITCSASQDISNYLNWYQQKPGKAPKVLIYFTSSLHSGVPSRFSGSGSGTDFTLTISSLQPEDFATYYCQQYSTVPWTFGQGTKVEIK
modifications: Fab

Assays:
[1] = test system: patient with active fluid within or under the retina; test: Case studies of Patients 1-8: intravitreal injection, lesion activity followed by OCT and fluorescein angiography; format: in vivo, human; details: for subretinal fluid and cystoid degeneration: despite photodynamic therapy with verteporfin X2, monthly ranibizumab X12, bevacizumab X15; for subretinal fluid: Patient 1, after 21 previous intravitreal injections of either Lucentis or Avastin; for sub-retinal and sub-RPE fluid: Patient 3, after repeated mono-therapy, ranibizumab 11 times or bevacizumab 3 times
Method: In the following examples, “protocol” treatment means that 0.3 mg of pegaptanib in combination with 0.125 mg of bevacizumab or 0.5 mg of ranibizumab, all in commercially available formulations, were injected intravitreally to a patient, using standard procedures for such injections.
The patient provided written consent following a thorough discussion of relative risks and benefits of the potential use of Macugen® in a combination format with simultaneous administration of intravitreal Avastin®.
Macugen® was first injected intravitreally (0.3 mg in 0.09 cc). Optic nerve perfusion and intraocular pressure were assessed. Upon restoration of adequate perfusion and pressure stabilization, the eye was once again sterilized and a second intravitreal injection of Avastin® (1.25 mg in 0.05 cc) was given. Optic nerve perfusion and intraocular pressure were reassessed, and the patient was scheduled for routine follow-up.

[2] = biological target: heparin-binding domain (HBD) of VEGF (Homo sapiens, UniProt P15692); details: Lee et al., FEBS Lett. 2008; cited from earlier work
Chain of heparin-binding domain (HBD) of VEGF (P15692 137-191 isoform P15692-4 limits assumed): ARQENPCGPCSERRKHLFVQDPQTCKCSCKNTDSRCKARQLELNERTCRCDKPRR

[3] = Patient 4, drug used in isolation after protocol treatment

Molecule | subretinal fluid and cystoid degeneration ([1]; Patient 7) | subretinal fluid [1] | sub-retinal and sub-RPE fluid [1] | fluid [1, 3] | fluid ([1]; Patient 6, re-administration of bevacizumab mono-therapy after protocol treatment) | fluid and vision ([1]; Patient 7, return to bevacizumab alone after protocol treatment) | binding affinity [2] | subretinal fluid on OCT ([1]; Patient 2, after 33 consecutive intravitreal ranibizumab treatments) | fluorescein angiogram, late frames ([1]; Patient 2, before combination therapy, after 33 intravitreal ranibizumab) | cystoid macular edema (CME) ([1]; Patient 4, despite 10 ranibizumab injections) | lesion activity on angiogram and OCT ([1]; Patient 6, after 22 ranibizumab treatments) | disease management ([1]; Patient 6, ranibizumab mono-therapy after disease was acutely managed with protocol treatment)
verteporfin | chronic subretinal fluid and cystoid degeneration | – | – | – | – | – | – | – | – | – | – | –
bevacizumab | subretinal fluid (SRF); also recorded: chronic subretinal fluid and cystoid degeneration | chronic subretinal fluid | chronic fluid in the sub-retinal and sub-RPE (retinal pigment epithelium) space | recurrent fluid | recurrent fluid | relapse of fluid and vision loss | – | – | – | – | – | –
pegaptanib | – | – | – | recurrent fluid | – | – | high affinity | – | – | – | – | –
B1 | subretinal fluid (SRF); also recorded: chronic subretinal fluid and cystoid degeneration | chronic subretinal fluid | chronic fluid in the sub-retinal and sub-RPE (retinal pigment epithelium) space | – | – | – | – | subretinal fluid (SRF); also recorded: chronic residual subretinal fluid | leakage from the choroidal neovascular membrane (CNVM) | chronic cystoid macular edema (CME) | persistent lesion activity | could be managed with ranibizumab mono-therapy alone
